# Laboratory results from patent publication US20080234130A1, “Compositions providing tolerance to multiple herbicides and methods of use thereof” (priority 2005, published 2008).
# What was measured:
# GAT-HRA soybeans = experiment: Postemergence greenhouse spray of soybeans, visual injury (Table 11); settings: 8960 g/ha
# Method: (§1) Young regenerated transgenic plants were sprayed with 1× glyphosate (1× rate of glyphosate is 1120 g/ha of glyphosate isopropylamine) to cull segregants. Four replications were performed for each treatment. Plants were then treated with various herbicides, including glyphosate and ALS-inhibitor herbicides.
# (§2) Six soybean seeds from each variety to be assayed were planted 1 cm deep in 5.5 (13.97 cm) inch square plastic container of a synthetic growth medium. […] When possible, containers were thinned to two uniform plants. Non-transgenic lines were thinned to two uniform plants per container.
# (§3) Results are expressed below in Table 11 as the mean of four replications.
# [1] = tested on: non-transgenic control soybeans; experiment: as above; settings: 8960 g/ha
# Method: as §1, §2, §3
# [2] = tested on: GAT-HRA transgenic cotton plants; experiment: Greenhouse over the top herbicide spray of cotton; type: in vivo, Gossypium hirsutum
# Excerpt: (§4) Transformed cotton plants were rooted and then transferred to soil for further growth. Plants were then subjected to herbicide spray treatments in a greenhouse. […] Untransformed Coker 312 control plants were dead 2 weeks after glyphosate application. […] Plants transformed with both GAT and HRA were further subjected to an “over the top” application of the sulfonylurea herbicide rimsulfuron at a rate of 16 g active ingredient/hectare. […] In further experiments 32 g ai/ha rimsulfuron were applied to the cotton.
# [3] = tested on: untransformed Coker 312 cotton; experiment: Greenhouse over the top herbicide spray of cotton; type: in vivo, Gossypium hirsutum
# Excerpt: as §4
# [4] = tested on: non-transformed GS3 embryos; experiment: Glyphosate kill curve on culture media; type: cell-based, maize; settings: about 40 days culture
# Method: (§5) A glyphosate kill curve was established by testing non-transformed embryos response on media with different levels of glyphosate. GS3 embryos were isolated from an immature ear and placed onto media containing glyphosate at 0.0, 0.5, 1.0, and 2.0 mM. After about 40 days culture, the response of the embryos were observed and recorded. Similarly, infected GS3 embryos with the GAT construct were placed onto media containing glyphosate at 0.0, 0.5, 1.0, and 2.0 mM. After about 40 days culture, the response of the infected embryos were observed and recorded (FIG. 7).
# [5] = tested on: infected GS3 embryos with the GAT construct; experiment: Glyphosate selection of embryos infected with the GAT construct; type: cell-based, maize; settings: media with 1.0 mM or 2.0 mM glyphosate, about 40 days culture
# Method: as §5
# [6] = tested on: non-glyphosate resistant Conyza (Welgevallen-paraquat resistant); experiment: Control of hairy fleabane by glyphosate, metsulfuron-methyl and two additives (Table 24); type: in vivo, Conyza bonariensis
# Method: This example included the same treatments as used in Example 11, except the treatments were carried out on a glyphosate sensitive biotype of Kleinskraalhans (Conyza bonariensis).
# • Biotype: Non-glyphosate resistant Conyza (Welgevallen-paraquat resistant) • Growth Stage: 10-15 leaf stage • Conditions: Cool and sunny • Volume rate: 200 L ha^−1 • glyphosate (ROUNDUP): 360 g a.i. L^−1
# [7] = tested on: parent elite stiff stalk inbred corn; experiment: Postemergence effect of ALS herbicides, glyphosate and glufosinate (fresh weight, visual injury); settings: 200 g/ha (glyphosate 3472 g ae/ha, glufosinate ammonium 1870 g/ha), mean of four replications; for % Visual Injury Parent elite stiff stalk inbred: 2 weeks after treatment, 0% no injury, 100% plant death
# [8] = tested on: heterozygous GAT-HRA corn; experiment: as above; settings: 200 g/ha (glyphosate 3472 g ae/ha, glufosinate ammonium 1870 g/ha), mean of four replications; for % Visual Injury Heterozygous GAT-HRA: 2 weeks after treatment, 0% no injury, 100% plant death
# [9] = tested on: parent elite stiff stalk inbred corn; experiment: Preemergence effect of ALS herbicides (fresh weight, visual injury); settings: 200 g/ha, 4 weeks after treatment, 0% no injury, 100% plant death, mean of four replications
# [10] = tested on: heterozygous GAT-HRA corn; experiment: as above; settings: 200 g/ha, 4 weeks after treatment, 0% no injury, 100% plant death, mean of four replications
# [11] = tested on: Fairview (Tulbagh) ryegrass resistant to glyphosate, paraquat, and ACCase-inhibitors; experiment: Control of resistant ryegrass by glyphosate, metsulfuron-methyl and two additives (Table 25); type: in vivo; settings: Trial 1: glyphosate (ROUNDUP) 0.5 L/ha
# Method: This example was conducted on one of the most resistant ryegrass types in the world, ryegrass resistant to non-selective herbicides, e.g., Fairview (Tulbagh), which is resistant to glyphosate, paraquat, and ACCase-inhibitors. In this example, the addition of metsulfuron-methyl (BRUSH-OFF®) at 5 and 10 g ha^−1, with 1% ammonium sulfate-based adjuvant (ADD-UP®) to 0.5 L Roundup improved control by 44% (e.g., 50% to 94%).
# • Biotype: Fairview (Tulbagh) resistant to glyphosate, paraquat, and ACCase-inhibitors. • Growth Stage: 10-15 leaf stage • Conditions: Cool and sunny • 15 Volume rate: 200 L ha^−1 • glyphosate (ROUNDUP): 360 g ai L^−1
# [12] = tested on: non-glyphosate resistant ryegrass (70-04); experiment: Control of ryegrass by glyphosate, metsulfuron-methyl and two additives (Table 23); type: in vivo; settings: Trial 1: glyphosate (SCAT) 0.5 L/ha
# Method: The example was conducted on non-glyphosate resistant ryegrass. As provided in Table 23, all treatments that included glyphosate [180 g a.i. L ha^−1 (0.5 L glyphosate (SCAT®))] plus metsulfuron-methyl (BRUSH-OFF®) (5 and 10 g ha^−1) gave 100% control of the ryegrass.
# • Biotype: non-glyphosate resistant ryegrass (70-04) • Population profile: Rup 0.25 control (%) 6.25 • Rup 0.5 control (%) 81.25 • Rup 1.0 control (%) 93.75 • Growth Stage: 5-6 leaf stage • Conditions: hot and sunny • Volume rate: 200 L ha^−1
# [13] = tested on: Fairview (Tulbagh) ryegrass resistant to glyphosate, paraquat, and ACCase-inhibitors; experiment: Control of resistant ryegrass by glyphosate and representative SU's (Table 26); type: in vivo; settings: Trial 2: glyphosate (SCAT) 6 L/ha; sprayed with 1% ADD-UP
# Excerpt: In this example, four different SU's were applied together with glyphosate (SCAT®) on the resistant ryegrass. The results as to the best SU partner for glyphosate were inconclusive, but the average benefit of applying an SU with glyphosate on herbicide resistant ryegrass was 39% (e.g., 34% control with glyphosate (SCAT®) only and 57-83% control with glyphosate (SCAT®) plus metsulfuron-methyl (BRUSH-OFF®), chlorsulfuron (GLEAN®), or triasulfuron (LOGRAN®)).
# • Biotype: Fairview (Tulbagh) resistant to glyphosate, paraquat, and ACCase-inhibitors. • Growth Stage: 4 leaf stage • Conditions: Cool and sunny • Volume rate: 200 L ha^−1 • All treatments sprayed with 1% ADD-UP
structure (smiles),measurement,setting,value
"O=C(O)CNCP(=O)(O)O [Glyphosate, N-phosphonomethylglycine]",% Visual Injury,"GAT-HRA soybeans; Event # 59, Line # 21",40%
same,% Visual Injury,"GAT-HRA soybeans; Event # 59, Line # 28",37%
same,% Visual Injury,"GAT-HRA soybeans; Event # 59, mean",38%
same,% Visual Injury,"GAT-HRA soybeans; Event # 60, Line # 07",19%
same,% Visual Injury,"GAT-HRA soybeans; Event # 60, Line # 11",11%
same,% Visual Injury,"GAT-HRA soybeans; Event # 60, Line # 22",11%
same,% Visual Injury,"GAT-HRA soybeans; Event # 60, Line # 35",9%
same,% Visual Injury,"GAT-HRA soybeans; Event # 60, Line # 41",13%
same,% Visual Injury,"GAT-HRA soybeans; Event # 60, Line # 46",20%
same,% Visual Injury,"GAT-HRA soybeans; Event # 60, Line # 70",9%
same,% Visual Injury,"GAT-HRA soybeans; Event # 60, Line # 75",14%
same,% Visual Injury,"GAT-HRA soybeans; Event # 60, Line # 77",19%
same,% Visual Injury,"GAT-HRA soybeans; Event # 60, Line # 79",18%
same,% Visual Injury,"GAT-HRA soybeans; Event # 60, Line # 82",20%
same,% Visual Injury,"GAT-HRA soybeans; Event # 60, Line # 84",22%
same,% Visual Injury,"GAT-HRA soybeans; Event # 60, mean",15%
same,% Visual Injury,"GAT-HRA soybeans; Event # 61, Line # 02",10%
same,% Visual Injury,"GAT-HRA soybeans; Event # 61, Line # 02B",10%
same,% Visual Injury,"GAT-HRA soybeans; Event # 61, Line # 05",11%
same,% Visual Injury,"GAT-HRA soybeans; Event # 61, Line # 14",10%
same,% Visual Injury,"GAT-HRA soybeans; Event # 61, Line # 18",10%
same,% Visual Injury,"GAT-HRA soybeans; Event # 61, Line # 24",60%
same,% Visual Injury,"GAT-HRA soybeans; Event # 61, Line # 33",84%
same,% Visual Injury,"GAT-HRA soybeans; Event # 61, Line # 34",23%
same,% Visual Injury,"GAT-HRA soybeans; Event # 61, Line # 47",15%
same,% Visual Injury,"GAT-HRA soybeans; Event # 61, Line # 49",9%
same,% Visual Injury,"GAT-HRA soybeans; Event # 61, Line # 51",10%
same,% Visual Injury,"GAT-HRA soybeans; Event # 61, Line # 60",16%
same,% Visual Injury,"GAT-HRA soybeans; Event # 61, Line # 62",6%
same,% Visual Injury,"GAT-HRA soybeans; Event # 61, Line # 99",10%
same,% Visual Injury,"GAT-HRA soybeans; Event # 61, mean",20%
same,% Visual Injury,"GAT-HRA soybeans; Event # 64, Line # 41",20%
same,% Visual Injury,"GAT-HRA soybeans; Event # 64, Line # 47",10%
same,% Visual Injury,"GAT-HRA soybeans; Event # 64, mean",14%
same,% Visual Injury,"[1]; STS ®, Line # 25",100%
same,% Visual Injury,"[1]; STS ®, Line # 46",100%
same,% Visual Injury,"[1]; STS ®, mean",100%
same,% Visual Injury,"[1]; Wild Type, Line # 82",100%
same,% Visual Injury,"[1]; Wild Type, Line Jack",100%
same,% Visual Injury,"[1]; Wild Type, mean",100%
same,GAT-HRA transgenic plants with no deleterious symptoms,"[2]; glyphosate over the top at 4-6 leaf stage, 1.5 lb acid equivalent per acre, 14 days after application",approximately 50%
same,effect on untransformed Coker 312 control plants,"[3]; glyphosate over the top at 4-6 leaf stage, 1.5 lb acid equivalent per acre, 2 weeks after application",dead
same,callus growth,[4]; media with 1.0 and 2.0 mM glyphosate,very little callus growth
same,embryos showing callus initiation,[4]; medium with 0.5 mM glyphosate,about half of the embryos
same,resistant callus initiation of infected embryos,[5],some embryos initiated resistant callus
same,plants killed,"[6]; glyphosate on its own, 10-15 leaf stage, 200 L ha^-1",1 out of 16 plants
same,% Visual Injury Parent elite stiff stalk inbred,[7],100%
same,Fresh Weight (g) Parent elite stiff stalk inbred,"[7]; applied two weeks after planting, fresh shoots 2 weeks after treatment, untreated 76.4 g",1.0 g
same,% Visual Injury Heterozygous GAT-HRA,[8],10%
same,Fresh Weight (g) Heterozygous GAT-HRA,"[8]; applied two weeks after planting, fresh shoots 2 weeks after treatment, untreated 98.8 g",97.4 g
"CCS(=O)(=O)c1cccnc1S(=O)(=O)NC(=O)Nc1nc(OC)cc(OC)n1 [Rimsulfuron, N-[[(4,6-dimethoxy-2-pyrimidinyl)amino]carbonyl]-3-(ethylsulfonyl)-2-pyridinesulfonamide]",transgenic plants with no deleterious symptoms from the dual herbicide application,"[2]; rimsulfuron 16 g active ingredient/hectare over the top after glyphosate 1.5 lb ae/acre, 14 days after rimsulfuron, 28 days after glyphosate",approximately 35%
same,damage of untransformed Coker 312 plants,"[3]; rimsulfuron 16 g active ingredient/hectare, even in the absence of glyphosate",severe damage
same,% Visual Injury Patent elite stiff stalk inbred,[9],74%
same,% Visual Injury Heterozygous GAT-HRA,[10],0%
same,% Visual Injury Parent elite stiff stalk inbred,[7],91%
same,% Visual Injury Heterozygous GAT-HRA,[8],10%
O=C(O)CNCP(=O)(O)O [glyphosate (ROUNDUP ®)],Control (%),[6]; Trial 1: glyphosate (ROUNDUP) 0.5 L/ha,12%
same,Control (%),[11],50%
O=C(O)CNCP(=O)(O)O [glyphosate (SCAT ®)],Control (%),[12],94%
same,Control (%),[13],34%
